Experimental data published in patent US12435044B2, “Pyridazinone herbicides and pyridazinone intermediates used to prepare a herbicide” (FMC Corporation, priority 2018, dated 2025).

How the values were obtained:
Type in all cases: in vivo
[1] = tested on: giant foxtail (SETFA; Setaria faberi); experiment: Test K pre-/postemergence, mixtures of Cpd. No. 20 with metribuzin or rimsulfuron
Description: (§1) This test evaluated the effect of mixtures of Cpd. No. 20 with metribuzin or rimsulfuron on several plant species. Seeds of plant species selected from corn (ZEAMD; Zea mays, cv. ‘Pioneer 1184’), soybean (GLXMA; Glycine max, cv. Pioneer 35T58), giant foxtail (SETFA; Setaria faberi), palmer amaranth (AMAPA; Amaranthus palmeri), common waterhemp (AMATU; Amaranthus rudis), mare's tail (ERICA; Conyza canadensis), and common ragweed (AMBEL; Ambrosia artemisiifolia) were planted in pots containing Tama Silt Loam soil and treated preemergence with a directed soil spray using test chemicals formulated in a non-phytotoxic solvent mixture which included a surfactant.
(§2) At the same time, plants selected from these crop and weed species were planted in pots containing Redi-Earth® planting medium (Scotts Company, 14111 Scottslawn Road, Marysville, Ohio 43041) comprising spaghnum peat moss, vermiculite, wetting agent and starter nutrients and treated postemergence with test chemicals formulated in the same manner. Plants ranged in height from 2 to 10 cm and were in the one- to two-leaf stage for the postemergence treatment. Treated plants and untreated controls were maintained in a greenhouse for approximately 14-21 d, after which time all treated plants were compared to untreated controls and visually evaluated for injury. Plant response ratings, summarized in Tables K1 to K4, are based on a 0 to 100 scale where 0 is no effect and 100 is complete control. A dash (-) response means no test result. Test results are presented as a mean of 4 reps.

[2] = tested on: common waterhemp (AMATU; Amaranthus rudis); experiment: as above
Description: as §1, §2

[3] = tested on: mare's tail (ERICA; Conyza canadensis); experiment: as above
Description: as §1, §2

[4] = tested on: corn (ZEAMD; Zea mays, cv. ‘Pioneer 1184’); experiment: as above
Description: as §1, §2

[5] = tested on: giant foxtail (SETFA; Setaria faberi); experiment: Test J pre-/postemergence, mixtures of Cpd. No. 20 with (b15C2)
Description: as §1, with “(b15C2)” for “metribuzin or rimsulfuron”
as §2, with “J1 & J2,” for “K1 to K4,”

[6] = tested on: common waterhemp (AMATU; Amaranthus rudis); experiment: as above
Description: as §1, with “(b15C2)” for “metribuzin or rimsulfuron”
as §2, with “J1 & J2,” for “K1 to K4,”

[7] = tested on: soybean (GLXMA; Glycine max, cv. Pioneer 35T58); experiment: as above
Description: as §1, with “(b15C2)” for “metribuzin or rimsulfuron”
as §2, with “J1 & J2,” for “K1 to K4,”

[8] = tested on: mare's tail (ERICA; Conyza canadensis); experiment: as above
Description: as §1, with “(b15C2)” for “metribuzin or rimsulfuron”
as §2, with “J1 & J2,” for “K1 to K4,”

[9] = tested on: palmer amaranth (AMAPA; Amaranthus palmeri); experiment: as above
Description: as §1, with “(b15C2)” for “metribuzin or rimsulfuron”
as §2, with “J1 & J2,” for “K1 to K4,”

[10] = tested on: corn (ZEAMD; Zea mays, cv. ‘Pioneer 1184’); experiment: as above
Description: as §1, with “(b15C2)” for “metribuzin or rimsulfuron”
as §2, with “J1 & J2,” for “K1 to K4,”

Cc1ccc2ccc(C)c(-c3c(O)c(Cl)nn(C)c3=O)c2c1 [Cpd. No. 20, 6-chloro-4-(2,7-dimethyl-1-naphthalenyl)-5-hydroxy-2-methyl-3(2H)-pyridazinone]
SETFA plant response rating, 0 to 100 scale ([1]; postemergence, 8 g a.i./ha): 37 | SETFA plant response rating, 0 to 100 scale ([1]; postemergence, 16 g a.i./ha): 62 | SETFA plant response rating, 0 to 100 scale ([1]; postemergence, 31 g a.i./ha): 77 | SETFA plant response rating, 0 to 100 scale ([1]; postemergence, 62 g a.i./ha): 92 | SETFA plant response rating, 0 to 100 scale ([1]; preemergence, 8 g a.i./ha): 6 | SETFA plant response rating, 0 to 100 scale ([1]; preemergence, 16 g a.i./ha): 50 | SETFA plant response rating, 0 to 100 scale ([1]; preemergence, 31 g a.i./ha): 84 | SETFA plant response rating, 0 to 100 scale ([1]; preemergence, 62 g a.i./ha): 100 | AMATU plant response rating, 0 to 100 scale ([2]; postemergence, 8 g a.i./ha): 50 | AMATU plant response rating, 0 to 100 scale ([2]; postemergence, 16 g a.i./ha): 57 | AMATU plant response rating, 0 to 100 scale ([2]; postemergence, 31 g a.i./ha): 68 | AMATU plant response rating, 0 to 100 scale ([2]; postemergence, 62 g a.i./ha): 62 | AMATU plant response rating, 0 to 100 scale ([2]; preemergence, 8 g a.i./ha): 0 | AMATU plant response rating, 0 to 100 scale ([2]; preemergence, 16 g a.i./ha): 0 | AMATU plant response rating, 0 to 100 scale ([2]; preemergence, 31 g a.i./ha): 20 | AMATU plant response rating, 0 to 100 scale ([2]; preemergence, 62 g a.i./ha): 30 | ERICA plant response rating, 0 to 100 scale ([3]; postemergence, 8 g a.i./ha): 77 | ERICA plant response rating, 0 to 100 scale ([3]; postemergence, 16 g a.i./ha): 85 | ERICA plant response rating, 0 to 100 scale ([3]; postemergence, 31 g a.i./ha): 92 | ERICA plant response rating, 0 to 100 scale ([3]; postemergence, 62 g a.i./ha): 93 | ERICA plant response rating, 0 to 100 scale ([3]; preemergence, 8 g a.i./ha): 89 | ERICA plant response rating, 0 to 100 scale ([3]; preemergence, 16 g a.i./ha): 100 | ERICA plant response rating, 0 to 100 scale ([3]; preemergence, 31 g a.i./ha): 100 | ERICA plant response rating, 0 to 100 scale ([3]; preemergence, 62 g a.i./ha): 100 | ZEAMD plant response rating, 0 to 100 scale ([4]; postemergence, 8 g a.i./ha): 0 | ZEAMD plant response rating, 0 to 100 scale ([4]; postemergence, 16 g a.i./ha): 0 | ZEAMD plant response rating, 0 to 100 scale ([4]; postemergence, 31 g a.i./ha): 0 | ZEAMD plant response rating, 0 to 100 scale ([4]; postemergence, 62 g a.i./ha): 0 | ZEAMD plant response rating, 0 to 100 scale ([4]; preemergence, 8 g a.i./ha): 0 | ZEAMD plant response rating, 0 to 100 scale ([4]; preemergence, 16 g a.i./ha): 0 | ZEAMD plant response rating, 0 to 100 scale ([4]; preemergence, 31 g a.i./ha): 0 | ZEAMD plant response rating, 0 to 100 scale ([4]; preemergence, 62 g a.i./ha): 0 | SETFA plant response rating, 0 to 100 scale ([5]; postemergence, 8 g a.i./ha): 34 | SETFA plant response rating, 0 to 100 scale ([5]; postemergence, 16 g a.i./ha): 69 | SETFA plant response rating, 0 to 100 scale ([5]; postemergence, 31 g a.i./ha): 75 | SETFA plant response rating, 0 to 100 scale ([5]; postemergence, 62 g a.i./ha): 80 | SETFA plant response rating, 0 to 100 scale ([5]; preemergence, 8 g a.i./ha): 15 | SETFA plant response rating, 0 to 100 scale ([5]; preemergence, 16 g a.i./ha): 63 | SETFA plant response rating, 0 to 100 scale ([5]; preemergence, 31 g a.i./ha): 78 | SETFA plant response rating, 0 to 100 scale ([5]; preemergence, 62 g a.i./ha): 89 | AMATU plant response rating, 0 to 100 scale ([6]; postemergence, 8 g a.i./ha): 55 | AMATU plant response rating, 0 to 100 scale ([6]; postemergence, 16 g a.i./ha): 53 | AMATU plant response rating, 0 to 100 scale ([6]; postemergence, 31 g a.i./ha): 71 | AMATU plant response rating, 0 to 100 scale ([6]; postemergence, 62 g a.i./ha): 86 | AMATU plant response rating, 0 to 100 scale ([6]; preemergence, 8 g a.i./ha): 0 | AMATU plant response rating, 0 to 100 scale ([6]; preemergence, 16 g a.i./ha): 20 | AMATU plant response rating, 0 to 100 scale ([6]; preemergence, 31 g a.i./ha): 29 | AMATU plant response rating, 0 to 100 scale ([6]; preemergence, 62 g a.i./ha): 50 | GLXMA plant response rating, 0 to 100 scale ([7]; postemergence, 8 g a.i./ha): 3 | GLXMA plant response rating, 0 to 100 scale ([7]; postemergence, 16 g a.i./ha): 4 | GLXMA plant response rating, 0 to 100 scale ([7]; postemergence, 31 g a.i./ha): 9 | GLXMA plant response rating, 0 to 100 scale ([7]; postemergence, 62 g a.i./ha): 6 | GLXMA plant response rating, 0 to 100 scale ([7]; preemergence, 8 g a.i./ha): 0 | GLXMA plant response rating, 0 to 100 scale ([7]; preemergence, 16 g a.i./ha): 0 | GLXMA plant response rating, 0 to 100 scale ([7]; preemergence, 31 g a.i./ha): 0 | GLXMA plant response rating, 0 to 100 scale ([7]; preemergence, 62 g a.i./ha): 20 | ERICA plant response rating, 0 to 100 scale ([8]; postemergence, 8 g a.i./ha): 85 | ERICA plant response rating, 0 to 100 scale ([8]; postemergence, 16 g a.i./ha): 90 | ERICA plant response rating, 0 to 100 scale ([8]; postemergence, 31 g a.i./ha): 90 | ERICA plant response rating, 0 to 100 scale ([8]; postemergence, 62 g a.i./ha): 90 | ERICA plant response rating, 0 to 100 scale ([8]; preemergence, 8 g a.i./ha): 58 | ERICA plant response rating, 0 to 100 scale ([8]; preemergence, 16 g a.i./ha): 90 | ERICA plant response rating, 0 to 100 scale ([8]; preemergence, 31 g a.i./ha): 94 | ERICA plant response rating, 0 to 100 scale ([8]; preemergence, 62 g a.i./ha): 95 | AMAPA plant response rating, 0 to 100 scale ([9]; postemergence, 8 g a.i./ha): 18 | AMAPA plant response rating, 0 to 100 scale ([9]; postemergence, 16 g a.i./ha): 15 | AMAPA plant response rating, 0 to 100 scale ([9]; postemergence, 31 g a.i./ha): 33 | AMAPA plant response rating, 0 to 100 scale ([9]; postemergence, 62 g a.i./ha): 63 | AMAPA plant response rating, 0 to 100 scale ([9]; preemergence, 8 g a.i./ha): 20 | AMAPA plant response rating, 0 to 100 scale ([9]; preemergence, 16 g a.i./ha): 46 | AMAPA plant response rating, 0 to 100 scale ([9]; preemergence, 31 g a.i./ha): 48 | AMAPA plant response rating, 0 to 100 scale ([9]; preemergence, 62 g a.i./ha): 60 | ZEAMD plant response rating, 0 to 100 scale ([10]; postemergence, 8 g a.i./ha): 0 | ZEAMD plant response rating, 0 to 100 scale ([10]; postemergence, 16 g a.i./ha): 0 | ZEAMD plant response rating, 0 to 100 scale ([10]; postemergence, 31 g a.i./ha): 0 | ZEAMD plant response rating, 0 to 100 scale ([10]; postemergence, 62 g a.i./ha): 0 | ZEAMD plant response rating, 0 to 100 scale ([10]; preemergence, 8 g a.i./ha): 0 | ZEAMD plant response rating, 0 to 100 scale ([10]; preemergence, 16 g a.i./ha): 0 | ZEAMD plant response rating, 0 to 100 scale ([10]; preemergence, 31 g a.i./ha): 0 | ZEAMD plant response rating, 0 to 100 scale ([10]; preemergence, 62 g a.i./ha): 0
